Data as given in patent US11806359B2 (priority 2020, dated 2023).

What was measured:
HEP C = conditions: cited from earlier work
HCV H strain NS5B = conditions: cited from earlier work
HIV-1 = conditions: cited from earlier work
Dengue virus = conditions: Cheung et al. 2014; cited from earlier work
HEP B = conditions: cited from earlier work
ADV-8 = conditions: cited from earlier work
ENTV EV71 = conditions: cited from earlier work
ADV-3 = conditions: cited from earlier work
ADV-11 = conditions: cited from earlier work
ENTV CVB1 = conditions: cited from earlier work
HSV-1 = conditions: cited from earlier work
HSV-2 = conditions: cited from earlier work
SARS-CoV-2 = format: cell-based; conditions: FIG. 32
adenovirus = experiment: Antiviral activity against adenovirus; format: cell-based

Compound: CC1(C)CC[C@]2(C(=O)O)CC[C@]3(C)C(=CC[C@@H]4[C@@]5(C)CC[C@H](O)C(C)(C)[C@@H]5CC[C@]43C)[C@@H]2C1 [Oleanolic acid]
- anti-viral activity against HEP C (HEP C): some anti-viral activity
- anti-viral activity against HCV H strain NS5B (HCV H strain NS5B): some anti-viral activity
- anti-viral activity against HIV-1 (HIV-1): some anti-viral activity

Compound: CC(=O)O[C@H]1C[C@H](O[C@H]2[C@@H](O)C[C@H](O[C@H]3[C@@H](O)C[C@H](O[C@H]4CC[C@@]5(C)[C@H](CC[C@@H]6[C@@H]5C[C@@H](O)[C@]5(C)[C@@H](C7=CC(=O)OC7)CC[C@]65O)C4)O[C@@H]3C)O[C@@H]2C)O[C@H](C)[C@H]1O[C@@H]1O[C@H](CO)[C@@H](O)[C@H](O)[C@H]1O [lanatoside C]
- antiviral activity against Dengue virus (Dengue virus): demonstrates antiviral activity against Dengue virus

Compound: C[C@H]1[C@H](C)CC[C@]2(C(=O)O)CC[C@]3(C)C(=CC[C@@H]4[C@@]5(C)CC[C@H](O)C(C)(C)[C@@H]5CC[C@]43C)[C@H]12 [Ursolic acid]
- anti-viral activity against HEP B (HEP B): some anti-viral activity
- anti-viral activity against ADV-8 (ADV-8): some anti-viral activity
- anti-viral activity against HEP C (HEP C): some anti-viral activity
- anti-viral activity against ENTV EV71 (ENTV EV71): some anti-viral activity
- anti-viral activity against ADV-3 (ADV-3): some anti-viral activity
- anti-viral activity against HCV H strain NS5B (HCV H strain NS5B): some anti-viral activity
- anti-viral activity against ADV-11 (ADV-11): some anti-viral activity
- anti-viral activity against ENTV CVB1 (ENTV CVB1): some anti-viral activity
- anti-viral activity against HSV-1 (HSV-1): some anti-viral activity
- anti-viral activity against HSV-2 (HSV-2): some anti-viral activity
- anti-viral activity against HIV-1 (HIV-1): some anti-viral activity

Compound: C[C@H]1O[C@@H](O[C@H]2[C@@H](O)C[C@H](O[C@H]3[C@@H](O)C[C@H](O[C@H]4CC[C@@]5(C)[C@H](CC[C@@H]6[C@@H]5C[C@@H](O)[C@]5(C)[C@@H](C7=CC(=O)OC7)CC[C@]65O)C4)O[C@@H]3C)O[C@@H]2C)C[C@H](O)[C@@H]1O [digoxin, reference compound]
- inhibition of viral replication (SARS-CoV-2): efficacy of digoxin against the virus
- activity against adenovirus (adenovirus): inactive
